In patent US4738970A, “Benzimidazolyl-thio-tetrahydroquinolines and anti-peptic ulcer compositions containing the same” (Otsuka Pharmaceutical Co., Ltd., priority 1984, dated 1988) one finds IC50 data, which are given here for 15 compounds.

T1 sequence (P19156 2-1034 limits assumed): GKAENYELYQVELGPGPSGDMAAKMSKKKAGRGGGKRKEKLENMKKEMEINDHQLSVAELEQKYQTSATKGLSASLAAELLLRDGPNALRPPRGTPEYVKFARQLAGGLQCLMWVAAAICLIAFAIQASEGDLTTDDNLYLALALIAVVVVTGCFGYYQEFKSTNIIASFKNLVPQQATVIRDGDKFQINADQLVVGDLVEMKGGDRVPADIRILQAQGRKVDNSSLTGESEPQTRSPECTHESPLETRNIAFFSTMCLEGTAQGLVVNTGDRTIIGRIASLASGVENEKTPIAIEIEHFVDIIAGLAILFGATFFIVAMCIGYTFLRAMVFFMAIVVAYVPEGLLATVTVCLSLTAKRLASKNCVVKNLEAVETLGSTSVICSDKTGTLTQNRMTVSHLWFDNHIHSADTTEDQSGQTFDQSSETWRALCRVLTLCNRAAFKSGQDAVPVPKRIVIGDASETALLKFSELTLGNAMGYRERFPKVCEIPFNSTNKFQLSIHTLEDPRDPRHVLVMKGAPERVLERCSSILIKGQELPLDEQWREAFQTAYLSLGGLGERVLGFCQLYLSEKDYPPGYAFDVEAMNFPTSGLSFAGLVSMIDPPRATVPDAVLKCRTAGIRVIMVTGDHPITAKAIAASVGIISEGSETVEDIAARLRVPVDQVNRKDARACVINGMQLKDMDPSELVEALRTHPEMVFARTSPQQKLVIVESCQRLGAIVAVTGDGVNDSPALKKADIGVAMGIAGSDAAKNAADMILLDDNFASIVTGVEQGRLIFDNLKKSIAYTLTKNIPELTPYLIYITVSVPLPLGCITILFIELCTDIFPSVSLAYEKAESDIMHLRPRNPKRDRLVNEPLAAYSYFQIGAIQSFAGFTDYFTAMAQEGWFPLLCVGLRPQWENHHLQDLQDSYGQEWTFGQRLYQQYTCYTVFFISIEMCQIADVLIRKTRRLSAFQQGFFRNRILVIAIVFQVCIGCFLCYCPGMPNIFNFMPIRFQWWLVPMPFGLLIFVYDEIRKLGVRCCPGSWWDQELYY
T1 sequence (P18434 whole entry partner): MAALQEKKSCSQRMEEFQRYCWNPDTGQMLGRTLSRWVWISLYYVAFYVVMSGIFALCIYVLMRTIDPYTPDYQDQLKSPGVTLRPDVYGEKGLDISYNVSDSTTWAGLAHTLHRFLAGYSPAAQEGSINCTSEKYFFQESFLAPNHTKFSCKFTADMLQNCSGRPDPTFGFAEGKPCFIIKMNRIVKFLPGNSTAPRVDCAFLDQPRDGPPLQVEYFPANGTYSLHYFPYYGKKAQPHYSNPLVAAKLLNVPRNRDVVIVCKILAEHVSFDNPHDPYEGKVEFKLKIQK

The assay addresses T1, H^+ -K^+ -ATPase (Sus scrofa, UniProt P19156).
T1 construct: which was prepared from the stomach of swine; from tissue; host or cells: stomach of swine
Put plainly: Inhibitory Effect Test for the Activity of H^+ -K^+ -ATPase. The class given is biochemical. Particulars: H+-K+-ATPase from the stomach of swine; preincubation pH 6.1, room temperature 30 min; reaction pH 7.4, 37° C. 30 min; read-out: IC50 (50% inhibition dosage). As to the method: H^+ -K^+ -ATPase (hydrogen-potassium-activated adenosine triphosphatase) (protein content: 10 mcg) which was prepared from the stomach of swine was added to PIPES-tris[buffer PIPES-tris(hydroxymethyl)-2-amino-1,3-propanediol buffer (pH=6.1) containing 2 mM of piperazine-N,N'-bis(2-ethanesulfonic acid)], then the resulting mixture was let allowed to stand at room temperature.
Each of the test compounds was dissolved in dimethylformamide, and the dimethylformamide solution was added to the above-mentioned H^+ -K^+ -ATPase buffer solution so as to adjust the final concentration of the test compound to 1.0%. Each of thus prepared mixture was reacted at room temperature for 30 minutes.
Next, the above-mentioned reaction mixture was divided into two portions, and to the one portion thereof was added 1 ml of 75 mM PIPES-tris buffer solution (pH=7.4) (containing 4 mM of MgCl2, 4 mM of Na2 ATP and 20 mM of KCl), on the other hand, to another portion of the reaction mixture was added 1 ml of 75 mM PIPES-tris buffer solution (pH=7.4) (containing 4 mM of MgCl2 and 4 mM of Na2 ATP), respectively. Each of these two series of sample solutions was separately reacted at 37° C. for 30 minutes. Then to each of these reaction mixtures was added 0.3 ml of 40% trichloroacetic acid to terminate the reaction, and was subjected to centrifugal separation at 3,000 rpm for 10 minutes to obtain the supernatent. Next, the inorganic phosphoric acid formed in the reaction mixture was determined by a method according to the article by C. H. Fiske and Y. Subbarow: J. Biol. Chem., Vol. 66, pages 375-400, (1925). The difference of the value obtained by substracting the quantity of inorganic phosphoric acid determined by using PIPES-tris buffer solution without containing 20 mM of KCl from the quantity of inorganic phosphoric acid determined by using PIPES-tris buffer solution containing 20 mM of KCl, was converted into as activity value of enzyme with respect to the unit protein and unit time.
Inhibitory rate (%) of each of the test compounds was obtained from the activity value of the enzyme at the respective dosages in the test groups and those of obtained from the control group, then IC50 (50% inhibition dosage of each of the test compounds) was calculated from the inhibitory rate (%).
For the compound `C#CCOc1c(C)cnc2c1CCCC2[S+]([O-])c1nc2ccccc2[nH]1` (stereo not drawn) [Test compound 7, 8-(2-Benzimidazolyl)sulfinyl-3-methyl-4-propargyloxy-5,6,7,8-tetrahydroquinoline], the IC50 (in general, the concentration that gives 50% inhibition) came out at 1200 nM. Regarding `Cc1cnc2c(c1)CCCC2[S+]([O-])c1nc2cc(Cl)c(Cl)cc2[nH]1` (stereo not drawn) [Test compound 52, 3-Methyl-8-(5,6-dichloro-2-benzimidazolyl)-sulfinyl-5,6,7,8-tetrahydroquinoline], the IC50 was determined as 230 nM. The figure for `COc1c(C)cnc(C[S+]([O-])c2nc3nc(Br)ccc3[nH]2)c1C` (stereo not drawn) [Test compound 45, 5-Bromo-2-[(3,5-dimethyl-4-methoxy-2-pyridyl)methylsulfinyl]imidazo[4,5-b]pyridine] is 2340 nM; for `CC(=O)c1ccc2nc([S+]([O-])C3CCCc4cc(C)cnc43)[nH]c2c1` (stereo not drawn) [Test compound 18, 3-Methyl-8-(5-acetyl-2-benzimidazolyl)-sulfinyl-5,6,7,8-tetrahydroquinoline] it is 3200 nM. For `CCOc1cc2[nH]c([S+]([O-])C3CCCc4c3ncc(C)c4OC)nc2cc1F` (stereo not drawn) [Test compound 42, 3-Methyl-4-methoxy-8-(5-ethoxy-6-fluoro-2-benzimidazolyl)sulfinyl-5,6,7,8-tetrahydroquinoline] the value was 240 nM; for `C#CCOc1c(C)cnc2c1CCCC2[S+]([O-])c1nc2cc(Cl)c(Cl)cc2[nH]1` (stereo not drawn) [Test compound 8, 8-(5,6-Dichloro-2-benzimidazolyl)sulfinyl-3-methyl-4-propargyloxy-5,6,7,8-tetrahydroquinoline], 290 nM; for `COc1ccc2nc([S+]([O-])C3CCCc4c(C)ccnc43)[nH]c2c1` (stereo not drawn) [Test compound 13, 4-Methyl-8-(5-methoxy-2-benzimidazolyl)-sulfinyl-5,6,7,8-tetrahydroquinoline], 1100 nM.

As for `COc1ccc2nc([S+]([O-])C3CCCc4c(OC)ccnc43)[nH]c2c1` (stereo not drawn) [Test compound 24, 4-Methoxy-8-(5-methoxy-2-benzimidazolyl)-sulfinyl-5,6,7,8-tetrahydroquinoline], the IC50 was 7600 nM.

`C#CCOc1c(C)cnc2c1CCCC2[S+]([O-])c1nc2ccc(F)cc2[nH]1` (stereo not drawn) [Test compound 3, 8-(5-Fluoro-2-benzimidazolyl)sulfinyl-3-methyl-4-propargyloxy-5,6,7,8-tetrahydroquinoline]: the IC50 was 1100 nM. For `COCCOc1c(C)cnc2c1CCCC2[S+]([O-])c1nc2ccc(F)cc2[nH]1` (stereo not drawn) [Test compound 10, 8-(5-Fluoro-2-benzimidazolyl)sulfinyl-4-(2-methoxyethoxy)-3-methyl-5,6,7,8-tetrahydroquinoline] the value was 870 nM; for `COc1cc2nc([S+]([O-])C3CCCc4c3ncc(C)c4OC)[nH]c2cc1F` (stereo not drawn) [Test compound 48, 3-Methyl-4-methoxy-8-(5-fluoro-6-methoxy-2-benzimidazolyl)sulfinyl-5,6,7,8-tetrahydroquinoline], 310 nM.

`[O-][S+](c1nc2cc(Cl)c(Cl)cc2[nH]1)C1CCCc2cccnc21` (stereo not drawn) [Test compound 36, 8-(5,6-Dichloro-2-benzimidazolyl)sulfinyl-5,6,7,8-tetrahydroquinoline]: the 50% inhibitory concentration (IC50) turned out to be 700 nM. For `C=CCOc1c(C)cnc2c1CCCC2[S+]([O-])c1nc2cc(F)c(F)cc2[nH]1` (stereo not drawn) [Test compound 2, 4-Allyloxy-8-(5,6-difluoro-2-benzimidazolyl)-sulfinyl-3-methyl-5,6,7,8-tetrahydroquinoline] the value was 1800 nM. For `[O-][S+](c1nc2ccc(C(F)(F)F)cc2[nH]1)C1CCCc2cccnc21` (stereo not drawn) [Test compound 28, 8-(5-Trifluoromethyl-2-benzimidazolyl)-sulfinyl-5,6,7,8-tetrahydroquinoline] the value was 1900 nM. For `c1ccc(CSc2nc3ncccc3[nH]2)nc1` [Test compound 47, 2-(2-Pyridylmethylthio)imidazo[4,5-b]pyridine, reference compound] the value was more than 100000 nM.
